Measured values from patent US10058530B2, “Combination therapies for the treatment of Alzheimer's disease and related disorders” (The General Hospital Corporation, priority 2012, dated 2018).
“Also recorded” adds a separate entry of the source. Where two headings read alike, the source gives them in different places.

Columns and labels:
Aβ fibril formation = conditions: cited from earlier work
[1] = tested on: Alzheimer's disease patients; conditions: Phase 2a; cited from earlier work
Aβ peptide = experiment: Aβ aggregation by thioflavin T assay; format: biochemical; conditions: for inhibition of Aβ amyloid peptide polymerization into oligomers and higher order aggregates: summary of four separate in vitro assays, nanomolar concentrations; for inhibition of Aβ aggregation, thioflavin fluorescence: nanomolar concentration
Description: One of the most routinely used approaches to monitor Aβ polymerization is the thioflavin T binding assay. […] Aβ peptide at 5 μM was mixed with 10 μM thioflavin T with drug at different concentrations.
(§1) One of the most routinely used approaches to monitor Aβ polymerization is the thioflavin T binding assay (Elmaleh, 2014; Hori, 2015). […] Aβ peptide at 5 μM was mixed with 10 μM thioflavin T with drug at different concentrations.
Fibrillization of synthetic Aβ40 (FIG. 12A, left column and FIG. 12B, left column) or Aβ42 (FIG. 12A, right column and FIG. 12B, right column) peptides was followed over 1 hour.

AD patients = conditions: some AD patients; Wettstein and Spiegel, 1985; cited from earlier work
[2] = in vivo; cited from earlier work
[3] = Brain concentration of PIB analog TS3124; conditions: in vivo
clinical = conditions: human, in vivo; for MRT: mean residence time in plasma
microglial cells = experiment: Aβ uptake by cultured microglial cells; format: cell-based; conditions: 0, 10 nM, 10 μM or 1 mM, 16 hours
Description: After the incubation, the concentrations of […]-42 (right panel) in media were measured using Aβ ELISA and normalized with microglia cell number and according to the PBS control condition. (n=3 experiments; *, P<0.05, **, P<0.01)

Aβ40 [4] = target: T1, Aβ40 (Homo sapiens, UniProt P05067); experiment: Thioflavin T fibrillization assay, synthetic Aβ40; format: biochemical; set-up: host or cells: synthetic peptide; conditions: 5 nM, 50 nM and 500 nM; followed over 1 hour
Description: as §1
(§2) Fibrillization of synthetic Aβ40 (FIG. 12A, left column and FIG. 12B, left column) or Aβ42 (FIG. 12A, right column and FIG. 12B, right column) peptides was followed over 1 hour. The corresponding Vmax index (milli-units/minute) is indicated on each graph.

TBS soluble Aβ = TBS soluble Aβ level in brain of APP/PS1 mice by WAKO ELISA; format: in vivo
From the text: (§3) The treatment was given by IP injection everyday for 7 days before sacrificing the mice and harvesting the brain. Brain extracts were quantified for the total amount of Aβ40, Aβ42 and Aβ oligomers.
(§4) FIG. 5 illustrates the measurement of TBS soluble Aβ level by WAKO ELISA. […] As indicated, the number of animals per group is N=3 or 5, average±SE. The p value is significant using one-way ANOVA test (Bonferroni's test).

[5] = inhalation studies, Beach et al. 1981; cited from earlier work
Aβ42 [6] = target: T2, Aβ42 (Homo sapiens, UniProt P05067); experiment: TBS soluble Aβ42 level in brain of APP/PS1 mice by WAKO ELISA; format: in vivo; set-up: from tissue; host or cells: brain TBS-soluble extract of APP/PS1 transgenic mice; conditions: two higher doses (2.1 mg/kg and 3.15 mg/kg), IP daily 7 days
From the text: as §3, §4

Aβ40 [7] = target: T1, Aβ40; experiment: TBS soluble Aβ40 level in brain of APP/PS1 mice by WAKO ELISA; format: in vivo; set-up: from tissue; host or cells: brain TBS-soluble extract of APP/PS1 transgenic mice; conditions: two higher doses (2.1 mg/kg and 3.15 mg/kg), IP daily 7 days
From the text: as §3, §4

[8] = J. Pharm. Sci. 92(6), 2003; cited from earlier work
Aβ oligomer = experiment: TBS soluble Aβ oligomer level in brain of APP/PS1 mice (IBL 82E1-82E1 oligomer ELISA); format: in vivo; conditions: IP daily 7 days
From the text: as §3
FIG. 6 illustrates the measurement of TBS soluble Aβ oligomer level IBL oligomer ELISA (82E1-82E1). […] FIGS. 6B and 6C show the difference the experiments with Gdn and those without Gdn using Aβ WAKO ELISA. N=3 or 5 animals per group, average±SE. The p value is not significant using one-way ANOVA test (Bonferroni's test).

[9] = human
Aβ42 [10] = target: T2, Aβ42; experiment: Thioflavin T fibrillization assay, synthetic Aβ42; format: biochemical; set-up: host or cells: synthetic peptide; conditions: 5 nM, 50 nM and 500 nM; followed over 1 hour; smaller effects than on Aβ40
Description: as §1, §2

Abeta (1-40) peptides = Abeta (1-40) peptides (Homo sapiens, UniProt P05067); experiment: UV aggregation assay; format: biochemical
Description: Abeta peptide aggregation and the impact of drugs to slow or prevent Abeta aggregation was measured by a UV absorbance assay (Findeis, 1999). Abeta (1-40) peptides, at 50 μM, were mixed with 50 μM drug in assay buffer and the plate was incubated at ambient temperature on a plate reader. The UV absorbance was monitored at 540 nm over a 2-3 h period.
Polymerization of Aβ-monomer peptides into clusters of trimers and tetramers initiates the Aβ aggregation process into protofibrils and then into fibrils that form amyloid plaques.

[11] = human lung, high inspiratory rates, dry powder inhaler; cited from earlier work
[12] = tested on: microglia (Iba1) around amyloid deposits; experiment: Immunostaining of Aβ and microglial marker Iba1 in brain sections of APP/PS1 mice; format: in vivo; conditions: 3.15 mg/kg daily for seven days, vs PBS
cholinergic neurons = conditions: aged rhesus monkeys; cited from earlier work
[13] = tested on: basal forebrain cholinergic neurons; conditions: rats; cited from earlier work

Sequence of Abeta (1-40) peptides (P05067 672-711 limits assumed): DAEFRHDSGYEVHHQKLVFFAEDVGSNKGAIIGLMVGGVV
T1 sequence (P05067 672-711 limits assumed): as above
T2 sequence (P05067 672-713 limits assumed): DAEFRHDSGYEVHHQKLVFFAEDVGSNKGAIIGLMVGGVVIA

O=c1c(O)c(-c2ccc(O)cc2)oc2cc(O)ccc12 [5-Deoxykaempferol, 5-Deoxy-kaempferol]
Effects on Aβ fibril formation (Aβ fibril formation): Enhancing

O=c1c(O)c(-c2cc(O)c(O)c(O)c2)oc2cc(O)cc(O)c12 [Myricetin]
Effects on Aβ fibril formation (Aβ fibril formation): Inhibitory

O=C(NC1CN2CCC1CC2)c1n[nH]c2ccccc12 (stereo not drawn) [R3487]
effect on multiple measures of cognition [1]: statistically significant effect

O=c1c(O)c(-c2ccc(O)cc2)oc2cc(O)cc(O)c12 [Kaempferol]
Effects on Aβ fibril formation (Aβ fibril formation): Enhancing

O=C([O-])c1cc(=O)c2c(OCC(F)COc3cccc4oc(C(=O)[O-])cc(=O)c34)cccc2o1.[Na+].[Na+] [TS734]
inhibition of Aβ amyloid peptide polymerization into oligomers and higher order aggregates (Aβ peptide): effectively inhibits

O=c1c(O)c(-c2ccc(O)c(O)c2)oc2cc(O)cc(O)c12 [Quercetin]
Effects on Aβ fibril formation (Aβ fibril formation): Inhibitory

Fisetin
Effects on Aβ fibril formation (Aβ fibril formation): Inhibitory

O=c1cc(-c2ccccc2)oc2cc(O)cc(O)c12 [Chrysin]
Effects on Aβ fibril formation (Aβ fibril formation): Enhancing

O=c1c(O)c(-c2ccc(O)cc2)oc2cc(O)ccc12 [3,4′,7-Trihydroxyflavone, 3,4′,7-Tri-hydroxyflavone]
Effects on Aβ fibril formation (Aβ fibril formation): Inhibitory

O=c1c(O)c(-c2ccc(O)c(O)c2)oc2ccccc12 [3,3′,4′-Trihydroxyflavone, 3,3′,4′-Tri-hydroxyflavone]
Effects on Aβ fibril formation (Aβ fibril formation): Inhibitory

CCN1C(=O)CC2(CCN(C)CC2)C1=O [RS-86, 2-ethyl-8-methyl-2,8-diazospiro-4,5-decan-1,3-dione]
cognitive function, mood and social behavior (AD patients): improves cognitive function, mood and social behavior
brain penetration [2]: low

O=c1cc(-c2ccc(O)c(O)c2)oc2cc(O)cc(O)c12 [Luteolin]
Effects on Aβ fibril formation (Aβ fibril formation): Inhibitory

CC(F)CNc1ccc(-c2nc3ccc(O)cc3s2)cc1 (stereo not drawn) [TS3124]
brain concentration [3]: 4%

O=C([O-])c1cc(=O)c2c(OCC(O)COc3cccc4oc(C(=O)[O-])cc(=O)c34)cccc2o1.[Na+].[Na+] [cromolyn sodium]
MRT (clinical; inhaled or intranasal, 17.1 mg, 17.1 mg inhaled): 3.3 ± 2.9 h
MRT (clinical; inhaled or intranasal, 17.1 mg, range, 17.1 mg inhaled): 0.79 to 12.1 h
MRT (clinical; inhaled or intranasal, 34.2 mg, 34.2 mg inhaled (double dose)): 2.8 ± 1 h
MRT (clinical; inhaled or intranasal, 34.2 mg, range, 34.2 mg inhaled (double dose)): 1 to 5.4 h
half-life (clinical; inhaled or intranasal, half-life of clearance from plasma, inhaled): 1.75 ± 0.9 h
half-life (clinical; inhaled or intranasal, half-life of clearance from plasma, range, inhaled): 0.5 to 3.7 h
half-life (clinical; plasma half-life corresponding to mean residence time, 17.1 mg inhaled): ~2.3 h
Aβ40 levels in media of microglia culture (microglial cells; 50 nM synthetic Aβ40): dose-dependent decrease
Aβ42 levels in media of microglia culture (microglial cells; 50 nM synthetic Aβ42): dose-dependent decrease
Aβ40 fibrillization, Thioflavin T fluorescence (Aβ40 [4]): significantly decreased
monomeric Aβ (Gdn−) (TBS soluble Aβ; APP/PS1 mice, IP daily 7 days, no guanidine): decease; also recorded: reduction
decrease of total soluble Aβ levels (TBS soluble Aβ; after 1 week of peripheral administration): over 50%
pulmonary and cardiovascular (CV) function assessments [5]: no treatment effect
decrease in the amount of Aβ42 (Aβ42 [6]): up to 50%
decrease in the amount of Aβ40 (Aβ40 [7]): up to 50%
% PSA [8]: 44
LogP [8]: 1.9
PSA [8]: 189
Aβ oligomer level as difference with and without Gdn, WAKO ELISA (Aβ oligomer): not changed
concentration at which Aβ peptide polymerization is inhibited (Aβ peptide): 5 nM
inhibition of Aβ aggregation, thioflavin fluorescence (Aβ peptide): inhibition of Aβ aggregation; also recorded: inhibiting effect
inhibition of Aβ aggregation, thioflavin fluorescence (Aβ peptide; listed as CO399): inhibition of Aβ aggregation
inhibition of Aβ amyloid peptide polymerization into oligomers and higher order aggregates (Aβ peptide): inhibits its polymerization into oligomers and higher order aggregates; also recorded: effectively inhibits
inhibition of Aβ amyloid peptide polymerization into oligomers and higher order aggregates (Aβ peptide; listed as cromolyn): effectively inhibits
AUC (plasma) ([9]; 17.1 mg inhaled): 147.5±67.1 ng/mlxh
AUC (plasma), range ([9]; 17.1 mg inhaled): 44.7-287.0 ng/mlxh
maximum plasma concentration ([9]; 17.1 mg inhaled): 47.1 ± 33.6 ng/mL
maximum plasma concentration, range ([9]; 17.1 mg inhaled): 14.0 to 133 ng/mL
time of maximum plasma concentration ([9]; 17.1 mg inhaled): 23.3 ± 16.9 min
time of maximum plasma concentration, range ([9]; 17.1 mg inhaled): 5 to 60 min
AUC (plasma) ([9]; 34.2 mg inhaled (double dose)): 254.4±93.8 ng/mlxh
AUC (plasma), range ([9]; 34.2 mg inhaled (double dose)): 122.1-443.3 ng/mlxh
maximum plasma concentration ([9]; 34.2 mg inhaled (double dose)): 95.0 ± 45.5 ng/mL
maximum plasma concentration, range ([9]; 34.2 mg inhaled (double dose)): 36.1 to 236 ng/mL
time of maximum plasma concentration ([9]; 34.2 mg inhaled (double dose)): 22.2 ± 19.4 min
time of maximum plasma concentration, range ([9]; 34.2 mg inhaled (double dose)): 5 to 60 min
plasma concentration at 12 hours following inhalation ([9]; inhaled, expected): negligible
Aβ42 fibrillization, Thioflavin T fluorescence (Aβ42 [10]): significantly decreased
inhibition of Aβ peptide polymerization (Abeta (1-40) peptides): 8 fold
inhibition of the rate of Aβ polymerization (Abeta (1-40) peptides; equimolar with Aβ (50 μM)): 7 fold
time to 50% polymerization (Abeta (1-40) peptides; equimolar with Aβ (50 μM), 14 minutes in absence of drug): 75 min
inhaled drug-delivered-dose absorbed into the bloodstream [11]: 10-15%
percentage of Iba1 immunoreactivity overlapping with amyloid [12]: higher percentage of Iba1 immunoreactivity overlapping with amyloid
percentage of Iba1 immunoreactivity overlapping with amyloid ([12]; listed as Cromolyn Sodium): increased overlap between Aβ and Iba1

NGF: nerve growth factor; CERE-110 is NGF gene therapy
cholinergic axonal density (cholinergic neurons): restores cholinergic axonal density in aged monkeys to levels observed in young monkeys
cholinergic neuron atrophy (cholinergic neurons): ameliorates cholinergic neuron atrophy
age-related behavioral decline [13]: reversed age-related behavioral decline
cholinergic neuron cell death [13]: prevented cholinergic neuron cell death

O=c1c(O)c(-c2cccc(O)c2)oc2cc(O)ccc12 [3,3′,7-Trihydroxyflavone, 3,3′,7-Tri-hydroxyflavone]
Effects on Aβ fibril formation (Aβ fibril formation): Enhancing
